Values after ≈ are worked out from the molar mass of the structure shown. Read-outs that look alike come from different tables or passages of the source. Square brackets hold non-standard residues; d marks the D form. Peptide text beside a SMILES is read from it. Dab = NCC[C@H](N)C(=O)O
Experiments:
B. cinerea = assay: In vitro antifungal activity (MIC) in SFM culture media, with or without added salts
[1] = system: B. cinerea, F. graminearum, F. oxysporum and P. capsici; assay type: cell-based; settings: in vitro, low cationic conditions; for antifungal activity relative to the wild-type GMA4C_AC control: against B. cinerea, F. graminearum, F. oxysporum and P. capsici
C. parapsilosis = assay: MIC by CLSI M27/M38 methodology; assay type: cell-based, Candida parapsilosis; settings: C. parapsilosis isolate ATCC 22019; Table 8
Description: (§1) Testing for antifungal activity used half-strength potato dextrose broth for peptides and RPMI for comparator antifungals fluconazole and voriconazole. CLSI M27 and M38 methodologies used for to measure MICs. Minimal Inhibitory Concentration (MIC) is the concentration of the compound, protein, or peptide at which there is no significant growth of the microorganism relative to the growth of the microorganism in growth medium lacking the compound, protein, or peptide.
(§2) […] The concentration range for peptides in potato dextrose broth was 0.06-2 mcg/ml, the concentration range for fluconazole was 0.125-64 mcg/ml, and the concentration range for voriconazole was 0.03-16 mcg/ml. MICs were determined at 24-72 hours.

Aspergillus fumigatus = assay: MIC by CLSI M27/M38 methodology; assay type: cell-based; settings: Table 8
Description: as §1, §2

Candida albicans = assay: MIC by CLSI M27/M38 methodology; assay type: cell-based; settings: Table 8
Description: as §1, §2

Candida auris = assay: MIC by CLSI M27/M38 methodology; assay type: cell-based; settings: Table 8
Description: as §1, §2

Fusarium (F. oxysporum) = assay: MIC by CLSI M27/M38 methodology; assay type: cell-based; settings: Table 8
Description: as §1, §2

Fusarium (F. solani) = assay: MIC by CLSI M27/M38 methodology; assay type: cell-based; settings: Fusarium isolate F4 (F. solani); Table 8
Description: as §1, §2

Coccidioides sp. = assay type: cell-based; settings: Table 8
[2] = Aspergillus fumigatus isolate AF293
[3] = Aspergillus fumigatus isolate DI15-106
[4] = Aspergillus fumigatus isolate DI15-116
[5] = Candida albicans isolate ATCC 90028
[6] = Candida albicans isolate SC5314
[7] = Fusarium isolate F1 (F. oxysporum)
[8] = Fusarium isolate F2 (F. oxysporum)
[9] = Coccidioides sp. isolate Cocci1
[10] = Coccidioides sp. isolate Cocci2
[11] = Coccidioides sp. isolate DI17-143

Compound	antifungal activity relative to the wild-type GMA4C_AC control [1]	MIC, 100% (C. parapsilosis)	MIC, 100% (Aspergillus fumigatus; [2])	MIC, 100% (Aspergillus fumigatus; [3])	MIC, 100% (Aspergillus fumigatus; [4])	MIC, 100% (Candida albicans; [5])	MIC, 100% (Candida albicans; Candida albicans isolate CA3)	MIC, 100% (Candida albicans; [6])	MIC, 100% (Candida auris; Candida auris isolate DI17-46)	MIC, 100% (Candida auris; Candida auris isolate DI17-47)	MIC, 100% (Candida auris; Candida auris isolate DI17-48)	MIC, 100% (Fusarium (F. oxysporum); [7])	MIC, 100% (Fusarium (F. oxysporum); [8])	MIC, 100% (Fusarium (F. solani))	MIC, 100% (Coccidioides sp.; [9])	MIC, 100% (Coccidioides sp.; [10])	MIC, 100% (Coccidioides sp.; [11])	other results
C[C@@H](O)[C@H](NC(=O)[C@H](CS)NC(=O)[C@H](Cc1ccccc1)NC(=O)[C@H](CS)NC(=O)[C@H](CCCNC(=N)N)NC(=O)[C@H](CCCNC(=N)N)NC(=O)[C@H](CCCNC(=N)N)NC(=O)[C@H](Cc1ccccc1)NC(=O)CNC(=O)[C@H](CCCNC(=N)N)NC(=O)[C@H](CS)NC(=O)[C@H](CCCNC(=N)N)NC(=O)CNC(=O)CN)C(=O)N[C@H](C(=O)N[C@@H](Cc1c[nH]cn1)C(=O)N[C@@H](CS)C(N)=O)[C@@H](C)O [GMA4C_AC] (H-GGRCRGFRRRCFCTTHC-NH2; N-terminus assumed)	–	–	–	–	–	–	–	–	–	–	–	–	–	–	–	–	–	F. graminearum MIC (F. graminearum): 3 µM; MIC Fusarium graminearum (F. graminearum): 3 µM (≈ 6.05 µg/mL); MIC Values against F. graminearum (F. graminearum): 6 µM (≈ 12.1 µg/mL); SFM + 2 mM CaCl2 MIC (B. cinerea; SFM + 2 mM CaCl2, Table 10): >6 (a few μM
NCC[C@H](NC(=O)CNC(=O)[C@@H](N)Cc1ccccc1)C(=O)N[C@@H](CS)C(=O)N[C@@H](CCN)C(=O)NCC(=O)N[C@@H](Cc1ccccc1)C(=O)N[C@@H](CCN)C(=O)N[C@@H](CCN)C(=O)N[C@@H](CCN)C(=O)N[C@@H](CS)C(=O)N[C@@H](Cc1ccccc1)C(=O)N[C@@H](CS)C(=O)N[C@@H](Cc1c[nH]c2ccccc12)C(=O)N[C@@H](CCN)C(=O)N[C@@H](Cc1c[nH]c2ccccc12)C(=O)N[C@@H](CS)C(N)=O [GMA4C_V5A, FG(Dab)C(Dab)GF(Dab)(Dab)(Dab)CFCW(Dab)WC-NH2] (H-FG[Dab]C[Dab]GF[Dab][Dab][Dab]CFCW[Dab]WC-NH2; N-terminus assumed)	equivalent to the wild-type GMA4C_AC control	8 µg/mL (≈ 4.08 µM)	32 µg/mL (≈ 16.3 µM)	>32 µg/mL	>32 µg/mL	16 µg/mL (≈ 8.17 µM)	8 µg/mL (≈ 4.08 µM)	16 µg/mL (≈ 8.17 µM)	16 µg/mL (≈ 8.17 µM)	16 µg/mL (≈ 8.17 µM)	16 µg/mL (≈ 8.17 µM)	8 µg/mL (≈ 4.08 µM)	16 µg/mL (≈ 8.17 µM)	8 µg/mL (≈ 4.08 µM)	2 µg/mL (≈ 1.02 µM)	16 µg/mL (≈ 8.17 µM)	16 µg/mL (≈ 8.17 µM)	–
CC[C@H](C)[C@H](NC(=O)[C@H](CCCNC(=N)N)NC(=O)[C@@H](NC(=O)[C@H](CS)NC(=O)[C@H](Cc1ccccc1)NC(=O)[C@H](CS)NC(=O)[C@H](CCCNC(=N)N)NC(=O)[C@H](CCCNC(=N)N)NC(=O)[C@H](CCCNC(=N)N)NC(=O)[C@H](Cc1ccccc1)NC(=O)CNC(=O)[C@H](CCCNC(=N)N)NC(=O)[C@H](CS)NC(=O)[C@H](CCCNC(=N)N)NC(=O)CNC(=O)CN)[C@@H](C)O)C(=O)N[C@@H](CS)C(N)=O [GMA4C_V2A] (H-GGRCRGFRRRCFCTRIC-NH2; N-terminus assumed)	–	8 µg/mL (≈ 3.91 µM)	32 µg/mL (≈ 15.6 µM)	>32 µg/mL	>32 µg/mL	16 µg/mL (≈ 7.82 µM)	16 µg/mL (≈ 7.82 µM)	16 µg/mL (≈ 7.82 µM)	16 µg/mL (≈ 7.82 µM)	16 µg/mL (≈ 7.82 µM)	16 µg/mL (≈ 7.82 µM)	8 µg/mL (≈ 3.91 µM)	16 µg/mL (≈ 7.82 µM)	8 µg/mL (≈ 3.91 µM)	8 µg/mL (≈ 3.91 µM)	16 µg/mL (≈ 7.82 µM)	16 µg/mL (≈ 7.82 µM)	reduction in antifungal activity relative to the wild-type GMA4C_AC control ([1]; against B. cinerea and F. graminearum): two-fold reduction
N=C(N)NCCC[C@H](NC(=O)CNC(=O)[C@@H](N)Cc1ccccc1)C(=O)N[C@@H](CS)C(=O)N[C@@H](CCCNC(=N)N)C(=O)NCC(=O)N[C@@H](Cc1ccccc1)C(=O)N[C@@H](CCCNC(=N)N)C(=O)N[C@@H](CCCNC(=N)N)C(=O)N[C@@H](CCCNC(=N)N)C(=O)N[C@@H](CS)C(=O)N[C@@H](Cc1ccccc1)C(=O)N[C@@H](CS)C(=O)N[C@@H](Cc1c[nH]c2ccccc12)C(=O)N[C@@H](CCCNC(=N)N)C(=O)N[C@@H](Cc1c[nH]c2ccccc12)C(=O)N[C@@H](CS)C(N)=O [GMA4C_V4A] (H-FGRCRGFRRRCFCWRWC-NH2; N-terminus assumed)	equivalent to the wild-type GMA4C_AC control	8 µg/mL (≈ 3.49 µM)	16 µg/mL (≈ 6.97 µM)	16 µg/mL (≈ 6.97 µM)	32 µg/mL (≈ 13.9 µM)	8 µg/mL (≈ 3.49 µM)	8 µg/mL (≈ 3.49 µM)	8 µg/mL (≈ 3.49 µM)	8 µg/mL (≈ 3.49 µM)	8 µg/mL (≈ 3.49 µM)	8 µg/mL (≈ 3.49 µM)	8 µg/mL (≈ 3.49 µM)	8 µg/mL (≈ 3.49 µM)	8 µg/mL (≈ 3.49 µM)	4 µg/mL (≈ 1.74 µM)	16 µg/mL (≈ 6.97 µM)	16 µg/mL (≈ 6.97 µM)	fungal growth inhibition at 6 μM (B. cinerea; B. cinerea, in presence of 2 mM CaCl2, peptide 6 μM): inhibit fungal growth; potency of antifungal activity relative to GMA4C_AC (B. cinerea; B. cinerea, in presence of 100 mM NaCl or 100 mM KCl): 2 fold
